Laboratory results as given in article PMC5296733, “Functional Coupling of Human Microphysiology Systems: Intestine, Liver, Kidney Proximal Tubule, Blood-Brain Barrier and Skeletal Muscle” (Scientific Reports, 2017).
Read-outs that look alike come from different tables or passages of the source.

Key:
[1] = system: vascularized proximal tubule kidney (VPTK) module; experiment: Vascularized proximal tubule kidney (VPTK) module secretion; details: for Excreted into proximal tubule lumen, MPS: Table 2, MPS model
Description: (§1) Mass spectrometry was used to measure the concentration of compound and metabolites in the media following exposure in each MPS organ module.
To form the vascularized kidney model, 2 lumens were pre-cast side-by-side in gelling collagen inside the Nortis microfluidic device. Human proximal tubule epithelial cells (PTEC) were seeded on the wall of one lumen channel at an approximate density of 20 × 10^6 cells/mL and were allowed to attach for 1 h. Culture media flow at 30 μl/h was then initiated and maintained for 5 days in order to establish a 100% confluent tubule expressing tight junctions. On day 6, the flow of culture media to the PTEC channel was stopped to allow the second channel seeding at 20 × 10^6 human umbilical vein endothelial cells/mL (HUVEC) and allowed to attach for 30–60 minutes. Parallel media flow of defined DMEM/F-12 (see Supplement) with 2% FBS for the PTEC channel and EGM-2 media for HUVEC channel were initiated at a rate of 30 μl/h. The VPTK devices were allowed to stabilize overnight before conducting test compound treatment.
The media for the PTEC channel remained unchanged. Media perfusion was initiated simultaneously for both channels at a flow rate of 60 μl/h. The effluents from both channels were collected for 6 h. Due to the insensitivity of the TMAO analyte by mass spectrometry, an additional TMAO experiment using EGM-2 media supplemented with 5 mM TMAO was conducted in the VPTK to quantitate the level of TMAO secretion.

[2] = cited from earlier work
[3] = system: blood-brain barrier/neurovascular unit (BBB/NVU); experiment: BBB/NVU module penetration; details: for Penetration through blood-brain barrier (MPS): BBB/NVU module, TMAO 12 h, others 24 h
[4] = system: differentiated human jejunal enteroids; experiment: Intestine module: jejunal enteroid Transwell transport and metabolism; details: for Concentration in micelle preparation: synthetic micelles containing 100 μM vitamin D3
Description: as §1
(§2) Human jejunal enteroid cultures were isolated from two separate donors as described[59] and maintained in culture as spherical enteroids in Matrigel (Becton Dickinson, Franklin Lakes, NJ) until dissociated and plated as monolayer cultures on collagen IV coated polyethylene terephthalate (PET) Transwell® membrane inserts (Corning, Inc., Corning, NY) (Fig. 1A)[55][59][60][61]. The apical chamber received 100 μl of a 5 × 10^6/mL of the suspended cells in proliferation media. The basolateral chamber received 600 μl of proliferation media. […] Jejunal barrier monolayer with intact tight junctions were established by TEER testing and the restricted diffusion of 4 kD FITC-dextran polymers over the 24 h period (Supplemental Information Supplemental Table S8).
(§3) TMA was prepared at a concentration 3 mM by dissolving the neat compound directly into intestinal apical media. […] The dried residue was solubilized in apical media and mixed by sonication in a water bath for 30 s.
(§4) All treatments were conducted in duplicate modules in each laboratory. […] The apical and basolateral media were collected in glass vials and frozen at −80 °C for MS analysis and transported to UPitt for testing in the SQL-SAL module.

[5] = system: proximal tubule kidney (PTK) module; experiment: Proximal tubule kidney (PTK) module, vitamin D3 metabolites
Description: Briefly, a single 100 μm diameter lumen was pre-cast in gelling collagen inside the microfluidic device and then seeded with passage 5 kidney PTEC to 100% confluence according to established methods[52]. The kidney proximal tubule modules were then perfused (30 μL/h) for 8 days with 100% kidney proximal tubule media prior to perfusion with mixed media solutions.
All media samples were stored in amber glass vials at −80 °C until LC-MS/MS analysis.

[6] = system: static SQL-SAL liver model; experiment: Static 4-cell SQL-SAL liver in 96-well microplates (vitamin D3); type: in vitro ADME, human; details: for Concentration in liver efflux media: vitamin D3 experiment, 96-well 4-cell liver module, 72 h, media pooled
Description: Media without dexamethasone was used to avoid downstream toxicity to the human neurons in the NVU. […]
The intestinal/liver-conditioned media efflux was collected and samples were tested by MS or transported on dry ice for testing in the kidney module, or the BBB/NVU module.
Dexamethasone, normally used to maintain hepatocyte differentiation, was removed from the liver media for functional coupling to avoid downstream toxicity to the human neurons in the NVU. […] Briefly, cryopreserved human hepatocytes were seeded into collagen type 1 coated 96-well plates at 26,000 hepatocytes/well and allowed to attach overnight in hepatocyte plating media (HPM). The HPM was decanted and 1.25x10^5 Ea.Hy.926 endothelial cells and 8 X10^4 differentiated U937 immune cells in MEM media supplemented with 10% FBS and L-Glutamine were added. After 2 h the media was decanted and 40 µL of a slurry of 1.5 mg/mL gelling collagen type 1 in Williams E media with 4 X 10^4 LX-2 stellate cells was added.

[7] = system: Kidney MPS Organ Module (PTK); experiment: Vitamin D binding protein as carrier in PTK module; details: 1 μM 25-(OH) VD3
[8] = system: Liver MPS Organ Module; experiment: Effect of vitamin D binding protein on recovery and metabolism in liver module; type: in vitro ADME, human; details: for 25-(OH) VD3 formation / VD3 Recovered in Efflux Media: 7 μM VitD3
Description: Media without dexamethasone was used to avoid downstream toxicity to the human neurons in the NVU. […] Media samples were collected after 24 h and 48 h incubations.
Samples from the treatment conditions were collected after 24-h and 48-h incubations and stored in amber glass vials at -80°C for LC-MS/MS analysis.

[9] = system: differentiated human jejunal enteroids
Description: as §1, §2, §3, §4

[10] = system: blood-brain barrier/neurovascular unit (BBB/NVU); details: human, 24 h
[11] = kidney perfused with liver conditioned media, 0-6 h
[12] = liver-conditioned media, 6 h perfusion
[13] = TMA experiment, liver-conditioned media, Brain (12 h)
[14] = 3 mM TMA added to apical compartment, 0-24 h
[15] = kidney perfused at 3.75 X 10^5 ng/ml TMAO spiked media, 0-6 h
[16] = terfenadine experiment, liver-conditioned media, 0-6 h
[17] = 0-48 h, 50% liver-conditioned, N=2
[18] = 100 μM vitamin D3 micelles apical, 24 h
[19] = initial four-organ functional study, no DBP

C[N+](C)(C)[O-] [TMAO, trimethylamine-N-oxide]
Excreted into proximal tubule lumen, MPS [1]: ~46% TMAO Excreted | TMAO secreted into the kidney lumen ([1]; independent experiment, media with 375 μg/mL TMAO): 46% | Concentration in kidney plasma efflux [1, 11]: 21720 ± 6967 ng/mL | Concentration in kidney proximal tubule lumen [1, 11]: 450 ± 290 ng/mL | Share of TMAO found in lumenal media [1, 12]: 5% | Share of TMAO found in vascular media [1, 12]: 95% | Excreted into proximal tubule lumen, Clinical ([2]; Table 2, clinical): > 95% TMAO Excreted | Concentration in brain neuronal efflux [3, 13]: 1800 ± 100 ng/mL | Concentration in brain vascular efflux [3, 13]: 4600 ± 200 ng/mL | Concentration in BBB/NVU neuronal efflux ([3]; TMA experiment, 12 h perfusion): 1800 ± 100 ng/mL | Concentration in BBB/NVU vascular efflux ([3]; TMA experiment, 12 h perfusion): 4600 ± 200 ng/mL | Concentration in intestine apical media [4, 14]: < LOQ^1 < LOQ | Concentration in intestine basolateral media [4, 14]: < LOQ^1 < LOQ

CN(C)C [TMA, trimethylamine]
Concentration in kidney plasma efflux [1, 15]: < LOQ < LOQ | Concentration in kidney proximal tubule lumen [1, 15]: < LOQ < LOQ | Concentration in kidney plasma efflux [1, 11]: < LOQ <LOQ | Concentration in kidney proximal tubule lumen [1, 11]: < LOQ <LOQ | Intestine fate, Clinical ([2]; Table 2, clinical): Uptake & Transport | Liver metabolism, Clinical ([2]; Table 2, clinical): TMA → TMAO | TMA Clearance (liver), Clinical ([2]; Table 2, clinical): < 5% | Concentration in brain neuronal efflux [3, 13]: < LOQ < LOQ | Concentration in brain vascular efflux [3, 13]: < LOQ < LOQ | Share of starting TMA concentration found in basolateral media ([4]; 316 μg/mL (3 mM) apical, 24 h): 6% | Concentration in intestine basolateral media [4, 14]: 19100 ± 2179 ng/mL | Concentration in intestine basolateral media ([4]; TMA hydrochloride 316 μg/mL (3 mM) apical, 24 h): 19100 ± 2200 ng/mL | Intestine fate, MPS ([4]; Table 2, MPS model): Uptake & Transport

CC(C)(C)c1ccc(C(O)CCCN2CCC(C(O)(c3ccccc3)c3ccccc3)CC2)cc1 (stereo not shown) [Terfenadine, terfenadine, reference compound]
Concentration in kidney plasma (vascular) efflux [1, 16]: < LOQ^2 < LOQ | Concentration in kidney proximal tubule lumen [1, 16]: < LOQ^2 < LOQ | Bio T (liver), Clinical ([2]; Table 2, clinical): < 1% | Intestine fate, Clinical ([2]; Table 2, clinical): Ter → Fex

CC(C)(C(=O)O)c1ccc(C(O)CCCN2CCC(C(O)(c3ccccc3)c3ccccc3)CC2)cc1 (stereo not shown) [Fexofenadine, fexofenadine, reference compound]
Excreted into proximal tubule lumen, MPS [1]: ~ 1% Fex Excreted | Share of total fexofenadine found in lumen media ([1]; liver-conditioned media, 6 h): ~1% | Excreted into proximal tubule lumen, Clinical ([2]; Table 2, clinical): 11% Fex Excreted

C=C1CC[C@H](O)[C@H](O)/C1=C/C=C1\CCC[C@]2(C)[C@@H]([C@H](C)CCCC(C)(C)O)CC[C@@H]12 [4β,25-(OH)2 Vitamin D3, 4β,25-(OH)2 vitamin D3]
Concentration in kidney efflux media [5, 17]: 0.0033 ng/mL | Concentration in kidney efflux media ([5]; 0-48 h, 80% liver-conditioned): 0.0064 ng/mL | Concentration in kidney efflux media ([5]; 0-120 h, 50% liver-conditioned): 0.0076 ng/mL | Concentration in kidney efflux media ([5]; 0-120 h, 80% liver-conditioned): 0.014 ng/mL | Concentration in brain neuronal efflux ([3]; vitamin D3 experiment, 24 h): LOD | Concentration in brain vascular efflux ([3]; vitamin D3 experiment, 24 h): 0.0081 ± 0.0029 ng/mL | Concentration in intestine apical media [4, 18]: < LOD^2 < LOD < LOD | Concentration in intestine basolateral media [4, 18]: < LOD^2 < LOD < LOD | Concentration in micelle preparation [4]: < LOD^2 < LOD < LOD | Concentration in liver efflux media [6]: 0.047 ng/mL

C=C1CC[C@H](O)C/C1=C/C=C1\CCC[C@]2(C)[C@@H]([C@H](C)CCCC(C)(C)O)CC[C@@H]12 [25-(OH) Vitamin D3, 25-(OH) vitamin D3]
Concentration in kidney efflux media [5, 17]: 0.12 ng/mL | Concentration in kidney efflux media ([5]; 0-48 h, 80% liver-conditioned): 0.23 ng/mL | Concentration in kidney efflux media ([5]; 0-120 h, 50% liver-conditioned): 0.29 ng/mL | Concentration in kidney efflux media ([5]; 0-120 h, 80% liver-conditioned): 0.48 ng/mL | 25-(OH) vitamin D3 perfused into the kidney that was unrecoverable [5, 19]: 90% | Kidney metabolism, Clinical ([2]; Table 2, clinical): 25(OH)VD3 → 1α,25(OH)2VD3 & 24,25(OH)2VD3 | Penetration through blood-brain barrier, Clinical ([2]; Table 2, clinical): VD3 & 25(OH)VD3 Penetration | Plasma 25-(OH) vitamin D3 transported by DBP ([2]; in humans): 85–90% | Penetration through blood-brain barrier (MPS) ([3]; liver-conditioned media): approximately 6% | Penetration through blood-brain barrier (MPS) ([3]; liver-conditioned media, listed as 25(OH) VD3): 6% | Concentration in brain neuronal efflux ([3]; vitamin D3 experiment, 24 h): 0.051 ± 0.022 ng/mL | Concentration in brain vascular efflux ([3]; vitamin D3 experiment, 24 h): 0.82 ± 0.15 ng/mL | Concentration in intestine apical media [4, 18]: < LOQ^1 < LOQ < LOQ | Concentration in intestine basolateral media [4, 18]: < LOQ^1 < LOQ < LOQ | Concentration in micelle preparation [4]: < LOQ^1 < LOQ < LOQ | Concentration in liver efflux media [6]: 3.0 ng/mL | 25-(OH) VD3 recovery ([7]; 48-72 h, Renal Tubular Epithelial Media + 3 μM Vitamin D Binding Protein): 100% | 25-(OH) VD3 recovery ([7]; 48-72 h, Renal Tubular Epithelial Media + 2% FBS): 8% | Recovered from syringes and tubing leading up to MPS module ([7]; media + 2% FBS): 16% | 25-(OH) VD3 formation as % of in vivo rate ([8]; 0-24 h, 3 μM DBP): 4.9 % of in vivo rate | 25-(OH) VD3 formation as % of in vivo rate ([8]; 0-24 h, no DBP): 2.7 % of in vivo rate | 25-(OH) VD3 formation ([8]; 0-24 h, 3 μM DBP): 12.63 pmol/day/10^6 Hepatocytes | 25-(OH) VD3 formation ([8]; 0-24 h, no DBP): 7.00 pmol/day/10^6 Hepatocytes | Improvement of formation and recovery of the metabolite with DBP ([8]; DBP:vitamin D3 3:1 versus no DBP): 2–3 fold

C=C1CCC(O)C/C1=C\C=C1\CCCC2(C)C1CCC2C(C)CCC(O)C(C)(C)O (stereo not shown) [24,25-(OH)2 Vitamin D3, 24,25-(OH)2 vitamin D3]
Concentration in kidney efflux media [5, 17]: 0.082 ng/mL | Concentration in kidney efflux media ([5]; 0-48 h, 80% liver-conditioned): 0.12 ng/mL | Concentration in kidney efflux media ([5]; 0-120 h, 50% liver-conditioned): 0.11 ng/mL | Concentration in kidney efflux media ([5]; 0-120 h, 80% liver-conditioned): 0.16 ng/mL | Concentration in brain neuronal efflux ([3]; vitamin D3 experiment, 24 h): LOQ | Concentration in brain vascular efflux ([3]; vitamin D3 experiment, 24 h): 0.079 ± 0.015 ng/mL | Concentration in intestine apical media [4, 18]: < LOD^2 < LOD < LOD | Concentration in intestine basolateral media [4, 18]: < LOD^2 < LOD < LOD | Concentration in micelle preparation [4]: < LOD^2 < LOD < LOD | Concentration in liver efflux media [6]: 0.25 ng/mL | Metabolite formation in kidney efflux ([7]; 48-72 h, media + 2% FBS): 6.80 ± 1.6 pmol/day/ 10^6 Proximal Tubule Cells

C=C1/C(=C\C=C2/CCC[C@]3(C)[C@@H]([C@H](C)CCCC(C)(C)O)CC[C@@H]23)C[C@@H](O)C[C@@H]1O [1α,25-(OH)2 Vitamin D3, 1α,25-(OH)2 vitamin D3]
Concentration in micelle preparation [9]: < LOD^2 < LOD < LOD | Concentration in liver efflux media [6]: 0.0064 ng/mL

C=C1CC[C@H](O)C/C1=C/C=C1\CCC[C@]2(C)[C@@H]([C@H](C)CCCC(C)C)CC[C@@H]12 [Vitamin D3, vitamin D3, reference compound]
Concentration in intestine apical media ([9]; human, 24 h, 100 µM): 20000 ± 2200 ng/mL | Concentration in intestine basolateral media ([9]; human, 24 h, 100 µM): 8300 ± 410 ng/mL | Concentration in kidney efflux media [5, 17]: 1.5 ng/mL | Concentration in kidney efflux media ([5]; 0-48 h, 80% liver-conditioned): 4.3 ng/mL | Concentration in kidney efflux media ([5]; 0-120 h, 50% liver-conditioned): 1.0 ng/mL | Concentration in kidney efflux media ([5]; 0-120 h, 80% liver-conditioned): 1.4 ng/mL | Penetration through blood-brain barrier, Clinical ([2]; Table 2, clinical): VD3 & 25(OH)VD3 Penetration | Penetration through blood-brain barrier (MPS) ([3]; liver-conditioned media): 0.4% | Share of initial vitamin D3 concentration transported to basolateral media ([4]; 100 μM vitamin D3 in micelles apical, 24 h): 23% | Concentration in micelle preparation [4]: 36000 ± 4200 ng/mL | Concentration in brain neuronal efflux [10]: 0.19 ± 0.23 ng/mL | Concentration in brain vascular efflux [10]: 45 ± 6.2 ng/mL | Liver metabolism, MPS ([6]; Table 2, MPS model, vitamin D3): VD3 → 25(OH)VD3 & 24,25(OH)2VD3 | Vitamin D3 perfused into the liver that was unrecoverable [6, 19]: 80% | Concentration in liver efflux media [6]: 1100 (pooled)^3 ng/ml | VD3 Recovered in Efflux Media ([8]; 0-24 h, Williams E Media + 1.25 mg/ml BSA (no DBP)): 20% | VD3 Recovered in Efflux Media ([8]; 0-24 h, Williams E Media + 1.25 mg/ml BSA (no DBP), listed as VD3): 20% recovery | VD3 Recovered in Efflux Media ([8]; 0-24 h, Williams E Media, 1.25 mg/ml BSA, 3 μM Vitamin D Binding Protein, listed as VD3): 57% recovery | VD3 Recovered in Efflux Media ([8]; 24-48 h, Williams E Media, 1.25 mg/ml BSA, 3 μM Vitamin D Binding Protein): ~100% | VD3 Recovered in Efflux Media ([8]; 24-48 h, Williams E Media, 1.25 mg/ml BSA, 3 μM Vitamin D Binding Protein, listed as VD3): 100% recovery
